Results on 1 molecule are retold here after publication PMC1968247 (British Journal of Cancer, 1993).

Read-outs that look alike come from different tables or passages of the source.

The nature of data set [1]: Maximum tolerated dose, full dose range to the point of toxicity. The settings on record: NMRI, mouse, in vivo, ip. The protocol: Br. J. Cancer (1993), 67, 441 446 t? […] Bibby Clinical Oncology Unit, University of Bradford, West Yorkshire, BD7 JDP, UK. […] In vivo anti-tumour activity was examined against three transplantable adenocarcinomas of the mouse colon and in vivo bone marrow toxicity was assessed using a spleen colony forming unit assay. The pharmacokinetic behaviour of the drug in vivo and drug stability in vitro was analysed by gas chromatography with electron capture detection. […] Clinical responses to cytotoxic agents have been largely restricted to the haematological malignancies while the majority of human solid tumours have remained refractory to chemotherapy (Marsoni et al., 1987). […] However, their clinical usefulness has been limited by non-selective host toxicity, particularly myelosuppres- sion. The chloroethylnitrosoureas decompose spontaneously in aqueous solution to generate reactive intermediates that are capable of alkylating and carbamoylating nucleophilic targets (Cheng et al., 1972). Alkylation reactions consist of chloroethylations and hydroxyethylations of DNA (Tong et al., 1982). Chloroethylation of 06-guanine with subsequent cross-link formation is considered to be the most important cytotoxic reaction (Lown et al., 1978) while hydroxyethyla- tion reactions are thought to be responsible for their mutagenic and carcinogenic effects (Pelfrene et al., 1976; Swenson et al., 1979). […] The assessment of stem cell survival has been recommended to study irreversible cytotoxic bone marrow injury (Schofield, 1986) and this can be performed readily in mice using a spleen colony forming unit assay. […] In vitro activity was assessed against a panel of established murine and human tumour cell lines while in vivo anti-tumour responses were evaluated against an ascitic tumour, MAC 15A, and two solid subcutaneous (sc) tumours, MAC 13 and MAC 26. […] Chemosensitivity testing In vitro chemosensitivity was assessed using a modified micro-tetrazolium (MTT) assay (Twenty- man & Luscombe, 1987).

For another data set, the system named is MAC 15A ascites tumour. Nature of the data set: Anti-tumour activity against MAC 15A (median survival time). The format is in vivo, NMRI mice. Particulars: 60 mg kg-1 ip. The protocol:
(§1) Br. J. Cancer (1993), 67, 441 446 t? […] Bibby Clinical Oncology Unit, University of Bradford, West Yorkshire, BD7 JDP, UK. […] In vivo anti-tumour activity was examined against three transplantable adenocarcinomas of the mouse colon and in vivo bone marrow toxicity was assessed using a spleen colony forming unit assay. The pharmacokinetic behaviour of the drug in vivo and drug stability in vitro was analysed by gas chromatography with electron capture detection. […] Clinical responses to cytotoxic agents have been largely restricted to the haematological malignancies while the majority of human solid tumours have remained refractory to chemotherapy (Marsoni et al., 1987). […] However, their clinical usefulness has been limited by non-selective host toxicity, particularly myelosuppres- sion. The chloroethylnitrosoureas decompose spontaneously in aqueous solution to generate reactive intermediates that are capable of alkylating and carbamoylating nucleophilic targets (Cheng et al., 1972). Alkylation reactions consist of chloroethylations and hydroxyethylations of DNA (Tong et al., 1982). Chloroethylation of 06-guanine with subsequent cross-link formation is considered to be the most important cytotoxic reaction (Lown et al., 1978) while hydroxyethyla- tion reactions are thought to be responsible for their mutagenic and carcinogenic effects (Pelfrene et al., 1976; Swenson et al., 1979). […] In the search for other types of compound that would chloroethylate DNA, a series of 2-haloethylsulphonates was synthesised (Shealy et al., 1983). […] Recently, the NCI has introduced a new disease-orientated screening programme based on the assessment of the in vitro cytotoxicity of a panel of cell lines representing the common clinical forms of human cancers using a colorimetric assay (Boyd, 1989). […] One reason for this discrepancy is that the in vitro tests ignore the potential role played by the pharmacokinetic behaviour and bioavailability of a drug in determining tumour responses in vivo. […] It has been used extensively as part of the pre-clinical evaluation of new anti-cancer agents within the Screening and Pharmacology Group of the EORTC (Bibby et al., 1988b). The feasibility of performing minimal toxicity studies in conjunction with anti-tumour studies has been described (Bibby et al., 1988b). […] Correspondence: A.M. Matthew. Received 6 December 1991; and in revised form 13 October 1992. Br. J. Cancer (1993), 67, 441-446 '?" Macmillan Press Ltd., 1993 442 A.M. MATIHEW et al. ethylating agents with improved therapeutic indices. The assessment of stem cell survival has been recommended to study irreversible cytotoxic bone marrow injury (Schofield, 1986) and this can be performed readily in mice using a spleen colony forming unit assay. […] In vitro activity was assessed against a panel of established murine and human tumour cell lines while in vivo anti-tumour responses were evaluated against an ascitic tumour, MAC 15A, and two solid subcutaneous (sc) tumours, MAC 13 and MAC 26. MAC 13 is relatively nitrosourea-sensitive due to a low level of the repair enzyme 06-alkylguanine-DNA alkyltransferase while MAC 26 is relatively nitrosourea-resistant due to a high repair enzyme level (Lunn et al., 1989). In vivo bone marrow toxicity and pharmacokinetic studies and in vitro drug stability studies were performed in conjunction with the anti-tumour studies. […] Chlorozotocin was dissolved in 10% dimethylsulphoxide (DMSO)/arachis oil. Drug solutions were prepared at an appropriate concentration for the desired in vivo dose to be administered in 0.1 ml per 10 g body weight by intra- peritoneal (ip) or intravenous (iv) injection and for the desired final concentration in vitro to be achieved upon a 1 in 10 dilution. […] Chemosensitivity testing In vitro chemosensitivity was assessed using a modified micro-tetrazolium (MTT) assay (Twenty- man & Luscombe, 1987).

For a further data set, the system named is bone marrow. Particulars: 24 h. The protocol:
as §1

The subject of the next data set is MAC 26 tumours. Particulars: for Tumour growth delay: MAC 26; for Survivors: MAC 26 bearers. The protocol:
as §1

The next data set deals with MAC 13 tumours. The data set is described as follows: Anti-tumour activity against MAC 13 (tumour weight). In kind it is in vivo, NMRI mice. Particulars: 60 mg kg-1 ip. The protocol: as §1

Regarding `O=NN(CCCl)C(=O)N[C@H]1C(O)O[C@H](CO)[C@@H](O)[C@@H]1O` (stereo partly drawn) [Chlorozotocin, reference compound], in data set [1], the MTD (as a rule, the highest dose tested that stayed within the study's limit of toxicity) was found to be 60 mg/kg. For the same molecule, the T/C% in the data set with MAC 15A ascites tumour came out at 288%. The Survival fraction in the data set with bone marrow (15 mg kg-1 ip) is given as 0.86; with bone marrow (30 mg kg-1 ip), 0.80. Further, the Tumour growth delay is 0 days in the data set on MAC 26 tumours (60 mg kg-1 ip) and “Toxic” in the data set on MAC 26 tumours (80 mg kg-1 ip). Moreover, the results for the Survivors with MAC 26 tumours (60 mg kg-1 ip) and with MAC 26 tumours (80 mg kg-1 ip) were 9/9 and 3/9, respectively. In addition, in the data set with MAC 13 tumours, the “% Tumour weight inhibition” value is 59.2%.
